Results as given in article PMC11855478, “Bicyclic N,S-Acetals Containing Fused Cysteine-Amide System as New Heterocyclic Class Targeting Human Farnesyltransferase (FTase-h)” (International Journal of Molecular Sciences, 2025).

Legend:
[1] = target: human farnesyltransferase (FTase) (Homo sapiens, UniProt P49354+P49356); assay: FTase inhibitory assay (fluorescence, Dansyl-GCVLS); type: biochemical; conditions: inhibition of human FTase at 100 μM of tested compound; mean of two experiments
Outline: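 Partially purified recombinant FTase with Dansyl-GCVLS and farnesyl pyrophosphate in Tris/HCl pH 7.5 (DTT, MgCl2, ZnCl2, octyl-glucoside); fluorescence (ex 340/em 486 nm) read 15 min at 30 °C. IC50 by regression for compounds inhibiting >60% at 100 µM; kinetics varied FPP (Dns-GCVLS 2.5 μM) or peptide (FPP 10 μM).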

[2] = tested on: CCRF-CEM (Leukemia); assay: NCI one dose, CCRF-CEM; type: cell-based, human; conditions: 1.00E-5 Molar one dose
Procedure: (§1) 3.4. Cell Proliferation Assay
(§2) Selected compounds were tested on a panel of 60 human cancer cell lines at the National Cancer Institute (NCI), Germantown, MD, USA. The cytotoxicity studies were conducted using a 48 h exposure protocol using the sulfo-rhodamine B assay.

[3] = tested on: K-562 leukaemia cells; assay: NCI one dose, K-562; type: cell-based, human; conditions: K-562, 1.00E-5 Molar one dose
Procedure: as §1, §2

[4] = tested on: RPMI-8226 (Leukemia); assay: NCI one dose, RPMI-8226; type: cell-based, human; conditions: RPMI-8226, 1.00E-5 Molar one dose
Procedure: as §1, §2

[5] = tested on: A549/ATCC (Non-Small Cell Lung Cancer); assay: NCI one dose, A549/ATCC; type: cell-based, human; conditions: 1.00E-5 Molar one dose
Procedure: as §1, §2

[6] = tested on: HOP-92 (Non-Small Cell Lung Cancer); assay: NCI one dose, HOP-92; type: cell-based, human; conditions: HOP-92, 1.00E-5 Molar one dose
Procedure: as §1, §2

[7] = tested on: NCI-H23 (Non-Small Cell Lung Cancer); assay: NCI one dose, NCI-H23; type: cell-based, human; conditions: NCI-H23, 1.00E-5 Molar one dose
Procedure: as §1, §2

[8] = tested on: COLO 205 (Colon Cancer); assay: NCI one dose, COLO 205; type: cell-based, human; conditions: COLO 205, 1.00E-5 Molar one dose
Procedure: as §1, §2

[9] = tested on: HCC-2998 (Colon Cancer); assay: NCI one dose, HCC-2998; type: cell-based, human; conditions: HCC-2998, 1.00E-5 Molar one dose
Procedure: as §1, §2

[10] = tested on: HCT-116 (Colon Cancer); assay: NCI one dose, HCT-116; type: cell-based, human; conditions: HCT-116, 1.00E-5 Molar one dose
Procedure: as §1, §2

[11] = tested on: HT29 (Colon Cancer); assay: NCI one dose, HT29; type: cell-based, human; conditions: HT29, 1.00E-5 Molar one dose
Procedure: as §1, §2

[12] = tested on: KM12 (Colon Cancer); assay: NCI one dose, KM12; type: cell-based, human; conditions: KM12, 1.00E-5 Molar one dose
Procedure: as §1, §2

[13] = tested on: SW-620 (Colon Cancer); assay: NCI one dose, SW-620; type: cell-based, human; conditions: SW-620, 1.00E-5 Molar one dose
Procedure: as §1, §2

[14] = tested on: MALME-3M (Melanoma); assay: NCI one dose, MALME-3M; type: cell-based, human; conditions: 1.00E-5 Molar one dose
Procedure: as §1, §2

[15] = tested on: M14 (Melanoma); assay: NCI one dose, M14; type: cell-based, human; conditions: M14, 1.00E-5 Molar one dose
Procedure: as §1, §2

[16] = tested on: SK-MEL-2 (Melanoma); assay: NCI one dose, SK-MEL-2; type: cell-based, human; conditions: SK-MEL-2, 1.00E-5 Molar one dose
Procedure: as §1, §2

[17] = tested on: SK-MEL-28 (Melanoma); assay: NCI one dose, SK-MEL-28; type: cell-based, human; conditions: SK-MEL-28, 1.00E-5 Molar one dose
Procedure: as §1, §2

[18] = tested on: IGROV1 (Ovarian Cancer); assay: NCI one dose, IGROV1; type: cell-based, human; conditions: IGROV1, 1.00E-5 Molar one dose
Procedure: as §1, §2

[19] = tested on: OVCAR-3 (Ovarian Cancer); assay: NCI one dose, OVCAR-3; type: cell-based, human; conditions: OVCAR-3, 1.00E-5 Molar one dose
Procedure: as §1, §2

[20] = tested on: OVCAR-5 (Ovarian Cancer); assay: NCI one dose, OVCAR-5; type: cell-based, human; conditions: OVCAR-5, 1.00E-5 Molar one dose
Procedure: as §1, §2

[21] = tested on: NCI/ADR-RES (Ovarian Cancer); assay: NCI one dose, NCI/ADR-RES; type: cell-based, human; conditions: 1.00E-5 Molar one dose
Procedure: as §1, §2

[22] = tested on: 786-0 (Renal Cancer); assay: NCI one dose, 786-0; type: cell-based, human; conditions: 786-0, 1.00E-5 Molar one dose
Procedure: as §1, §2

[23] = tested on: A498 (Renal Cancer); assay: NCI one dose, A498; type: cell-based, human; conditions: A498, 1.00E-5 Molar one dose
Procedure: as §1, §2

[24] = tested on: ACHN (Renal Cancer); assay: NCI one dose, ACHN; type: cell-based, human; conditions: 1.00E-5 Molar one dose
Procedure: as §1, §2

[25] = tested on: SN12C (Renal Cancer); assay: NCI one dose, SN12C; type: cell-based, human; conditions: 1.00E-5 Molar one dose
Procedure: as §1, §2

[26] = tested on: UO-31 renal cancer cells; assay: NCI one dose, UO-31; type: cell-based, human; conditions: UO-31, 1.00E-5 Molar one dose
Procedure: as §1, §2

[27] = tested on: PC-3 (Prostate Cancer); assay: NCI one dose, PC-3; type: cell-based, human; conditions: PC-3, 1.00E-5 Molar one dose
Procedure: as §1, §2

[28] = tested on: DU-145 (Prostate Cancer); assay: NCI one dose, DU-145; type: cell-based, human; conditions: DU-145, 1.00E-5 Molar one dose
Procedure: as §1, §2

Row | SMILES | % FTI [1] [%] | Growth Percent [2] [%] | Growth Percent [3] [%] | Growth Percent [4] [%] | Growth Percent [5] [%] | Growth Percent [6] [%] | Growth Percent [7] [%] | Growth Percent [8] [%] | Growth Percent [9] [%] | Growth Percent [10] [%] | Growth Percent [11] [%] | Growth Percent [12] [%] | Growth Percent [13] [%] | Growth Percent [14] [%] | Growth Percent [15] [%] | Growth Percent [16] [%] | Growth Percent [17] [%] | Growth Percent [18] [%] | Growth Percent [19] [%] | Growth Percent [20] [%] | further results
1 | C[C@@]12SC[C@@H](C(=O)NCc3ccccc3Br)N1C(=O)c1ccccc12 [4bB] | 39 | 88.50 | 80.28 | 91.24 | 77.15 | 88.23 | 91.89 | 111.70 | 97.16 | 104.70 | 83.02 | 100.14 | 103.50 | 97.54 | 107.44 | 85.75 | 104.28 | 97.21 | 111.49 | 93.99 | Growth Percent [21]: 94.45%; Growth Percent [22]: 101.65%; Growth Percent [23]: 75.85%; Growth Percent [24]: 106.88%; Growth Percent [25]: 89.32%; Growth Percent [26]: 86.71%; Growth Percent [27]: 78.76%; Growth Percent [28]: 101.37%
2 | C[C@@]12SC[C@@H](C(=O)NCc3ccc(Cl)cc3Cl)N1C(=O)c1ccccc12 [4bH] | 22 | 84.65 | 79.34 | 86.31 | 77.42 | 106.23 | 94.51 | 109.32 | 99.28 | 96.09 | 83.74 | 101.11 | 104.06 | 108.23 | 108.31 | 92.79 | 108.92 | 100.21 | 101.07 | 99.53 | Growth Percent [21]: 96.56%; Growth Percent [22]: 103.58%; Growth Percent [23]: 77.10%; Growth Percent [24]: 106.47%; Growth Percent [25]: 97.63%; Growth Percent [26]: 86.15%; Growth Percent [27]: 78.16%; Growth Percent [28]: 109.42%
3 | C[C@@]12SC[C@@H](C(=O)NCc3ccccc3)N1C(=O)c1ccccc12 [4bA] | 49 | 95.36 | 91.39 | 104.44 | 78.86 | 83.94 | 98.21 | 108.00 | 113.03 | 97.31 | 80.95 | 102.18 | 108.38 | 107.28 | 101.98 | 92.83 | 105.22 | 105.63 | 119.90 | 97.87 | Growth Percent [21]: 98.79%; Growth Percent [22]: 101.14%; Growth Percent [23]: 91.48%; Growth Percent [24]: 102.90%; Growth Percent [25]: 95.20%; Growth Percent [26]: 99.51%; Growth Percent [27]: 90.34%; Growth Percent [28]: 110.52%
4 | COc1cccc(CNC(=O)[C@@H]2CS[C@@]3(C)c4ccccc4C(=O)N23)c1 [4bE] | 56 | 94.80 | 82.59 | 95.74 | 76.25 | 101.27 | 98.91 | 115.50 | 107.01 | 104.89 | 89.19 | 107.56 | 104.85 | 110.68 | 104.58 | 97.24 | 112.92 | 107.98 | 115.54 | 110.33 | Growth Percent [21]: 98.88%; Growth Percent [22]: 105.14%; Growth Percent [23]: 85.49%; Growth Percent [24]: 106.16%; Growth Percent [25]: 101.62%; Growth Percent [26]: 91.68%; Growth Percent [27]: 96.89%; Growth Percent [28]: 106.55%
5 | C[C@@]12SC[C@@H](C(=O)NCc3ccccc3C(F)(F)F)N1C(=O)c1ccccc12 [4bC] | 58 | 88.01 | 87.85 | 87.02 | 69.56 | 87.86 | 99.44 | 104.03 | 105.71 | 89.85 | 79.15 | 100.49 | 104.67 | 112.02 | 100.54 | 87.91 | 111.34 | 103.13 | 115.46 | 102.51 | Growth Percent [21]: 101.64%; Growth Percent [22]: 101.91%; Growth Percent [23]: 79.95%; Growth Percent [24]: 106.49%; Growth Percent [25]: 94.74%; Growth Percent [26]: 91.39%; Growth Percent [27]: 80.00%; Growth Percent [28]: 102.05%
